In patent US20220334127A1, “IN VITRO METHOD FOR OBTAINING CLINICAL DATA IN PATIENTS SUFFERING FROM AN INFLAMMATORY DISEASE” (FUNDACIÓN PARA LA FORMACIÓN E INVESTIGACIÓN SANITARIAS DE …, priority 2019, published 2022):

How the values were obtained:
Cell death (LDH assay) = assay type: cell-based
Experimental: Presence of LDH in cell-free supernatants was measured using the Cytotoxicity Detection kit (Roche) following the manufacturer's instructions.

HIF-1α = HIF-1α staining in human monocytes by flow cytometry; assay type: cell-based; conditions: ATP 1 mM 30 min, washed, cultured 2 h (FIG. 7e)
Experimental: Human peripheral blood mononuclear cells (PBMCs) were isolated from blood within one hour after extraction using Ficoll histopaque 1077 (Sigma-Aldrich). […] Cells were treated with ATP (Sigma-Aldrich), antimycin A (Sigma-Aldrich) or FCCP (Sigma-Aldrich) in the presence or absence of PDTC (Sigma-Aldrich) or echinomycin (Sigma-Aldrich) in E-total buffer (147 mM NaCl, 10 mM HEPES, 13 mM glucose, 2 mM CaCl2), 1 mM MgCl2, and 2 mM KCl) and then washed and stimulated with E. coli LPS O55:B5 in their respective complete media. […] After LPS treatment, cells were incubated with P2X7 modulating nanobodies, the specific P2X7 receptor antagonist A438079 or AZ11645373 (Tocris), and then subsequently stimulated with ATP or nigericin (Sigma-Aldrich) in E-total buffer. Times and concentrations for the reagents used are specified in the figure legends.
HIF-1α expression was detected in CD14^+ monocytes using Alexa Fluor-647 mouse anti-human HIF-1α (BD Biosciences, Clone 54) at 1:1000 dilution.

NLRP3 inflammasome = test: IL-1β release from BMDMs pre-treated, washed, LPS-primed and stimulated with nigericin; assay type: cell-based, mouse; conditions: P2X7-receptor-deficient macrophages (FIG. 6c)
Experimental: FIG. 6. P2X7 receptor stimulation induces an impairment of the NLRP3 inflammasome in monocytes. (a-b) Percentage of monocytes with ASC-specks (a) and release of […] from PBMCs (b) isolated from healthy donor blood samples treated with ATP (3 mM, 30 min; ATP-pre), then washed and primed with or without LPS (1 μg/ml, 2 h) and then treated for 20 min with ATP (3 mM; ATP-post) or nigericin (10 μM) as indicated. (c) IL-1β release from wild type or P2rx7^−/− BMDMs treated as in a, but with 4 h LPS priming and 30 min of ATP or nigericin. (d) IL-1β release from wild type or P2rx7^−/− BMDMs treated for 30 min with antimycin A (5 μM) or FCCP (1 μM) and then washed and primed with LPS (1 μg/ml, 4 h) and then stimulated with nigericin (10 μM, 30 min) as indicated. (e) Expression of Nrlp3 and Illb genes analyzed by quantitative PCR from wild type or P2rx7^−/− BMDMs treated with ATP (3 mM, 30 min; ATP-pre), then washed and primed with or without LPS (100 ng/ml, 4 h). (f) Kaplan-Meier representation of wild type (top) or P2rx7^−/− (bottom) mice survival after sham operation (dotted line), or CLP operation (continuous line); some mice groups were i.p. injected with ATP (0.5 mg/g) 30 min before operation (dashed lines). Wild type CLP n=10, CLP+ATP n=8, sham n=4, sham+ATP n=4; P2rx7^−/− CLP n=4, CLP+ATP n=6, sham n=3. (g) IL-1β from peritoneal lavage (left) or bacterial load in blood (right) from wild type sham, CLP or CLP+ATP mice after 24 h. Each dot represents a single independent experiment (c,d), a sample from an individual healthy donor (a,b,e) or a single mouse (g); average±standard error is represented in panels a-e,g; *p<0.05; **p<0.01; ns, no significant difference (p>0.05); Mann-Whitney test was used for a,b,d,e; Kruskal-Wallis test was used for c; Long-rank test for f.
FIG. 7. Mitochondrial dysfunction mediates P2X7 receptor induced NLRP3 inflammasome impairment. (a) Mitochondrial membrane depolarization in BMDMs treated with ATP (3 mM, 30 min), then washed out and incubated for the indicated times in the absence or presence of LPS (1 μg/ml) as indicated. […] (e) Representative histogram plot of HIF-1α staining (left) or quantification of HIF-1α mean intensity fluorescence increase (ΔMFI, right) in monocytes isolated from healthy donor blood samples and treated or not with ATP (1 mM, 30 min) in the presence or absence of AZ11645373 (10 μM) or PDTC (10 μM), and then washed and cultured for 2 h; non-stained monocytes (light grey, left). […] (g) Expression of HIF1A gene analyzed by quantitative PCR from control surgery group and septic patients PBMCs; septic patients are separated into NLRP3 non-immunocompromised (grey bar) and immunocompromised (black bar). […]

P2X7 receptor = test: Cecal ligation and puncture (CLP) sepsis model with i.p. ATP before operation; assay type: in vivo, mouse; conditions: wild type mice, ATP pre-treatment (FIG. 6g)
Experimental: FIG. 6. P2X7 receptor stimulation induces an impairment of the NLRP3 inflammasome in monocytes. (a-b) Percentage of monocytes with ASC-specks (a) and release of […] from PBMCs (b) isolated from healthy donor blood samples treated with ATP (3 mM, 30 min; ATP-pre), then washed and primed with or without LPS (1 μg/ml, 2 h) and then treated for 20 min with ATP (3 mM; ATP-post) or nigericin (10 μM) as indicated. (c) IL-1β release from wild type or P2rx7^−/− BMDMs treated as in a, but with 4 h LPS priming and 30 min of ATP or nigericin. […] (e) Expression of Nrlp3 and Illb genes analyzed by quantitative PCR from wild type or P2rx7^−/− BMDMs treated with ATP (3 mM, 30 min; ATP-pre), then washed and primed with or without LPS (100 ng/ml, 4 h). […]
The University of Murcia Animal Research Ethical Committee approved animal procedures (ref 5/2014) and then the Animal Health Service of the General Directorate of Fishing and Farming of the Council of Murcia (Servicio de Sanidad Animal, Dirección General de Ganaderia y Pesca, Consejeria de Agricultura y Agua Región de Murcia) approved animal procedures with ref A1320140201. […] Buprenorphine (0.3 mg/kg) was administered intraperitoneally at the time of surgery and mice were monitored continuously until recovery from anesthesia. […] Then the number of bacterial colonies was counted and expressed as CFU/ml of serum.

Nc1ncnc2c1ncn2[C@@H]1O[C@H](COP(=O)(O)OP(=O)(O)OP(=O)(O)O)[C@@H](O)[C@H]1O [ATP, adenosine triphosphate]
cell death (Cell death (LDH assay)): did not induce cell death | HIF-1α expression by the agent itself (HIF-1α): increased | NLRP3 inflammasome inhibition when ATP applied before LPS priming (NLRP3 inflammasome): did not present NLRP3 inflammasome inhibition | bacterial load in the blood (P2X7 receptor; 24 h after CLP): increased | release of IL-1β into the mouse peritoneum (P2X7 receptor; peritoneal lavage 24 h after CLP): decreased
